The source of these data is publication PMC6334005, “Ginsenosides Act As Positive Modulators of P2X4 Receptors” (Molecular Pharmacology, 2019).

Assay [1] addresses T1, hP2X4 (Homo sapiens, UniProt Q99571).
T1 sequence (Q99571 1-388): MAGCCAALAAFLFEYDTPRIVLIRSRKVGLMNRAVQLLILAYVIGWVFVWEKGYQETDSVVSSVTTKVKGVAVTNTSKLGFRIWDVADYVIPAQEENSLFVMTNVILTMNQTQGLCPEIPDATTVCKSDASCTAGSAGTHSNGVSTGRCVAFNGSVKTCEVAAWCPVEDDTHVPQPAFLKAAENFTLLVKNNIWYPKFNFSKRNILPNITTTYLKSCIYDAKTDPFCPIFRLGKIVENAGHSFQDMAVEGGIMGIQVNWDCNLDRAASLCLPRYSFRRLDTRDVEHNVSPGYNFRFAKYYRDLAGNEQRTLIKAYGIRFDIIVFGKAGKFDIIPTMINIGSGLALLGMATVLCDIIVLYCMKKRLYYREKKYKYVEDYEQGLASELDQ
Nature of the assay: cell-based. Further details: gene P2RX4.

Assay [2] addresses T1, hP2X4. In words: YOPRO-1 dye uptake, potentiation of ATP response. The format is cell-based. On the set-up: gene P2RX4; full-length, C-terminal Glu-Glu tag, pcDNA3, stably expressed in HEK-293 cells; homotrimer.

On hP2X4 [1], `Nc1ncnc2c1ncn2[C@@H]1O[C@H](COP(=O)(O)OP(=O)(O)OP(=O)(O)O)[C@@H](O)[C@H]1O` [ATP] displayed an EC50 of 1.92 µM.

Take `CC(C)=CCC[C@](C)(O[C@@H]1O[C@H](CO)[C@@H](O)[C@H](O)[C@H]1O)[C@H]1CC[C@]2(C)[C@@H]1[C@H](O)C[C@@H]1[C@@]3(C)CC[C@H](O)C(C)(C)[C@@H]3CC[C@]12C` [CK]: at hP2X4 [2], the EC50 worked out at 8.5 µM.

On to `CC(C)=CCC[C@](C)(O[C@@H]1O[C@H](CO[C@@H]2O[C@H](CO)[C@@H](O)[C@H](O)[C@H]2O)[C@@H](O)[C@H](O)[C@H]1O)[C@H]1CC[C@]2(C)[C@@H]1[C@H](O)C[C@@H]1[C@@]3(C)CC[C@H](O[C@@H]4O[C@H](CO)[C@@H](O)[C@H](O)[C@H]4O[C@@H]4O[C@H](CO)[C@@H](O)[C@H](O)[C@H]4O)C(C)(C)[C@@H]3CC[C@]12C` [Rb1], for which the EC50 on hP2X4 [2] is 10.5 µM.

In the case of `CC(C)=CCC[C@](C)(O[C@@H]1O[C@H](CO)[C@@H](O)[C@H](O)[C@H]1O)[C@H]1CC[C@]2(C)[C@@H]1[C@H](O)C[C@@H]1[C@@]3(C)CC[C@H](O[C@@H]4O[C@H](CO)[C@@H](O)[C@H](O)[C@H]4O[C@@H]4O[C@H](CO)[C@@H](O)[C@H](O)[C@H]4O)C(C)(C)[C@@H]3CC[C@]12C` [Rd], at hP2X4 [2], the EC50 came to 7.5 µM.

In general, EC50 refers to the midpoint of the concentration-response curve.
